Results reported in the supplement of paper PMC10331698.
± gives the standard deviation of the averaged measurements.

Experiments:
Assay in all cases: level (log10 ratio to DMSO vehicle control); higher = higher biomarker level / cell amount than vehicle control
[1] = compound: OCC(F)(F)OC(F)(F)C(F)(F)OC(F)(F)C(F)(F)OC(F)(F)CO [1H,1H,11H,11H-Perfluorotetraethylene glycol] (in DMSO)
Protocol: (§1)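 BioMAP Diversity Plus panel of 12 human primary cell co-culture systems (3C, 4H, LPS, SAg, BT, BF4T, BE3C, CASM3C, HDF3CGF, KF3CT, MyoF, Mphg). Compounds were added 1 h before stimulation and left for 24 h (MyoF 48 h; BT 72 h for soluble read-outs or 6 d for IgG). Biomarkers were read by ELISA, cytotoxicity by SRB, PBMC viability and proliferation by Alamar Blue. Each well value was divided by the mean of 8 DMSO control wells on the same plate and log10 transformed; duplicate blinded samples were tested at 4 concentrations.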

Perfluorononanoic acid = compound: O=C(O)C(F)(F)C(F)(F)C(F)(F)C(F)(F)C(F)(F)C(F)(F)C(F)(F)C(F)(F)F [Perfluorononanoic acid] (in DMSO)
Protocol: as §1

Octafluoroadipic acid = compound: O=C(O)C(F)(F)C(F)(F)C(F)(F)C(F)(F)C(=O)O [Octafluoroadipic acid] (in DMSO)
Protocol: as §1

[2] = compound: O=S(=O)(O)C(F)(F)C(F)(F)C(F)(F)C(F)(F)C(F)(F)C(F)(F)C(F)(F)F [Perfluoroheptanesulfonic acid] (in DMSO)
Protocol: as §1

[3] = compound: C=C(C)C(=O)OCCC(F)(F)C(F)(F)C(F)(F)C(F)(F)C(F)(F)C(F)(F)C(F)(F)C(F)(F)F [8:2 Fluorotelomer methacrylate] (in DMSO)
Protocol: as §1

[4] = compound: OCC(F)(F)C(F)(F)C(F)(F)C(F)(F)C(F)(F)C(F)(F)CO [1H,1H,8H,8H-Perfluorooctane-1,8-diol] (in DMSO)
Protocol: as §1

[5] = compound: OCC(F)(F)C(F)(F)C(F)(F)C(F)F [1H,1H,5H-Perfluoropentanol] (in DMSO)
Protocol: as §1

Test System | level (log10) ([1]; 6700 nM) | level (log10) ([1]; 20000 nM) | level (log10) ([1]; 60000 nM) | level (log10) (Perfluorononanoic acid; 6700 nM) | level (log10) (Perfluorononanoic acid; 20000 nM) | level (log10) (Octafluoroadipic acid; 6700 nM) | level (log10) (Octafluoroadipic acid; 20000 nM) | level (log10) (Octafluoroadipic acid; 60000 nM) | level (log10) ([2]; 1500 nM) | level (log10) ([2]; 4400 nM) | level (log10) ([2]; 13000 nM) | level (log10) ([2]; 40000 nM) | level (log10) ([3]; 6700 nM) | level (log10) ([3]; 20000 nM) | level (log10) ([4]; 6700 nM) | level (log10) ([4]; 20000 nM) | level (log10) ([4]; 60000 nM) | level (log10) ([5]; 6700 nM) | level (log10) ([5]; 20000 nM) | level (log10) ([5]; 60000 nM)
HDF3CGF:Collagen I | -0.021 ± 0.065 | -0.0405 ± 0.053 | -0.116 ± 0.0057 | 0.0345 ± 0.005 | -0.0715 ± 0.036 | -0.008 ± 0.059 | -0.011 ± 0.024 | 0.042 ± 0.021 | -0.0005 ± 0.011 | -0.0075 ± 0.021 | -0.0105 ± 0.025 | 0.021 ± 0.075 | -0.0255 ± 0.029 | -0.001 ± 0.083 | 0.0025 ± 0.012 | 0.025 ± 0.016 | 0.0085 ± 0.035 | -0.0375 ± 0.039 | -0.0305 ± 0.037 | 0.0585 ± 0.021
HDF3CGF:Collagen III | -0.008 ± 0.092 | -0.087 ± 0.12 | -0.211 ± 0.12 | -0.0705 ± 0.043 | -0.168 ± 0.02 | -0.0085 ± 0.0064 | 0.0005 ± 0.018 | 0.0005 ± 0.0035 | -0.004 ± 0.018 | -0.0385 ± 0.053 | -0.052 ± 0.05 | -0.0205 ± 0.033 | -0.032 ± 0.042 | -0.0325 ± 0.067 | -0.0175 ± 0.013 | -0.0195 ± 0.0092 | -0.016 ± 0.0057 | -0.0215 ± 0.036 | -0.0135 ± 0.019 | 0.037 ± 0.027
HDF3CGF:EGFR | -0.008 ± 0.0085 | -0.0005 ± 0.025 | 0.013 ± 0.021 | 0.0115 ± 0.057 | -0.037 ± 0.013 | 0.0135 ± 0.0078 | 0.032 ± 0.048 | 0.032 ± 0.075 | 0.0085 ± 0.026 | -0.024 ± 0.059 | -0.033 ± 0.057 | 0.0245 ± 0.11 | -0.048 ± 0.071 | 0.0215 ± 0.091 | 0.006 ± 0.023 | 0.001 ± 0.018 | -0.0185 ± 0.026 | -0.0465 ± 0.033 | -0.0025 ± 0.028 | 0.022 ± 0.054
HDF3CGF:M-CSF | -0.036 ± 0.083 | -0.121 ± 0.098 | -0.261 ± 0.046 | 0.0115 ± 0.025 | -0.028 ± 0.028 | -0.0095 ± 0.005 | -0.01 ± 0.0085 | 0.0255 ± 0.036 | -0.0025 ± 0.011 | 0.0075 ± 0.019 | 0.003 ± 0.016 | 0 ± 0.034 | -0.0295 ± 0.019 | -0.093 ± 0.013 | 0.0115 ± 0.029 | 0.015 ± 0.0085 | 0.0535 ± 0.054 | -0.0405 ± 0.067 | -0.034 ± 0.071 | -0.0205 ± 0.053
HDF3CGF:MMP-1 | 0.0265 ± 0.0092 | 0.0845 ± 0.021 | 0.095 ± 0.0014 | -0.008 ± 0.0099 | -0.012 ± 0.0042 | -0.0115 ± 0.0078 | 0.0025 ± 0.0035 | 0.0015 ± 0.0064 | 0.0235 ± 0.013 | 0.013 ± 0.014 | 0.0205 ± 0.018 | 0.009 ± 0.024 | 0.013 ± 0.011 | 0.009 ± 0.018 | 0.0005 ± 0.013 | -0.0025 ± 0.013 | 0.008 ± 0.0071 | 0.0075 ± 0.005 | 0.007 ± 0.0085 | 0.0105 ± 0.022
HDF3CGF:PAI-I | -0.0265 ± 0.033 | -0.0285 ± 0.013 | -0.036 ± 0.027 | 0.037 ± 0.062 | 0.0765 ± 0.064 | -0.008 ± 0.017 | -0.017 ± 0.0071 | 0.0115 ± 0.037 | 0.02 ± 0.073 | 0.0135 ± 0.049 | -0.0315 ± 0.046 | -0.0325 ± 0.011 | -0.0305 ± 0.052 | -0.0635 ± 0.022 | -0.0085 ± 0.0092 | -0.026 ± 0.0057 | -0.023 ± 0.017 | -0.111 ± 0.12 | -0.047 ± 0.16 | -0.0365 ± 0.096
HDF3CGF:Proliferation 72hr | -0.125 ± 0.1 | -0.178 ± 0.12 | -0.358 ± 0.064 | 0.143 ± 0.036 | -0.182 ± 0.24 | -0.036 ± 0.0042 | 0.024 ± 0.047 | 0.013 ± 0.017 | -0.042 ± 0.088 | -0.02 ± 0.031 | 0.076 ± 0.021 | 0.107 ± 0.0042 | -0.0395 ± 0.028 | -0.043 ± 0.069 | -0.04 ± 0.013 | -0.0035 ± 0.026 | -0.102 ± 0.027 | -0.023 ± 0.058 | 0.035 ± 0.024 | 0.0065 ± 0.025
